Results reported in the supplement of paper PMC8671470.
± gives the standard deviation of the averaged measurements.

Columns and labels:
Details in all cases: 72 h
[1] = test system: HL-60; assay: area under dose-response curve (viability, 1 nM-10 uM) (fraction (0-1)); higher = more sensitive
Method in brief: (§1)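 HL-60 cells in RPMI 1640 with 10% FBS were rescreened against the full library on 384-well plates at five tenfold concentrations, 1–10,000 nM, in duplicate. Each screen was run with DMSO or 100 nM of one of three metabolic inhibitors, for 72 h at 37 °C, 5% CO2. Viability was read by CellTiter-Glo and normalised to DMSO and 10 μM proteasome-inhibitor wells. Where given, area under the curve came from four-parameter log-logistic fits (drc, PharmacoGx).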

[2] = test system: ML-2; assay: cell viability (% survival relative to DMSO control, bortezomib = 0%); higher = less cytotoxic
Method in brief: (§2)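 Fifteen myeloid leukaemia cell lines (10 AML, 5 CML) were seeded at a density titrated to the linear growth range into 384-well plates pre-printed with compounds at 1, 10, 100, 1000 or 10000 nM in duplicate. Plates were incubated for 72 h at 37 °C with 5% CO2. Viability was then read by CellTiter-Glo luminescence. Each value is percent survival averaged over the duplicates, with vehicle set to 100% and a 10 µM positive control to 0%.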

[3] = test system: MV4-11; assay: as above
Method in brief: as §2

[4] = test system: MOLM-13; assay: as above
Method in brief: as §2

[5] = test system: HEL; assay: as above
Method in brief: as §2

[6] = test system: LAMA-84; assay: as above
Method in brief: as §2

[7] = test system: K-562; assay: as above
Method in brief: as §2

[8] = test system: KG-1; assay: as above
Method in brief: as §2

[9] = test system: KCL-22; assay: as above
Method in brief: as §2

[10] = test system: HL-60; assay: as above
Method in brief: as §2

[11] = test system: BV-173; assay: as above
Method in brief: as §2

[12] = test system: SHI-1; assay: as above
Method in brief: as §2

[13] = test system: HL-60; assay: cell viability (% survival relative to DMSO control); higher = less cytotoxic
Method in brief: as §1

[14] = test system: ML-2
Method in brief: (§3)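 Fifteen myeloid leukaemia lines in RPMI 1640 were treated for 72 h at 37 °C and 5% CO2 with five tenfold doses from 1 to 10,000 nM, in duplicate. ATP luminescence was normalised to vehicle and to a positive control at 10 µM, then fitted with a four-parameter log-logistic model. The IC50 came from these fits.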

[15] = test system: MV4-11
Method in brief: as §3

[16] = test system: MOLM-13
Method in brief: as §3

[17] = test system: HEL
Method in brief: as §3

[18] = test system: KU-812
Method in brief: as §3

[19] = test system: LAMA-84
Method in brief: as §3

[20] = test system: K-562
Method in brief: as §3

[21] = test system: Mono-Mac-6
Method in brief: as §3

[22] = test system: KG-1
Method in brief: as §3

[23] = test system: NOMO-1
Method in brief: as §3

[24] = test system: KCL-22
Method in brief: as §3

[25] = test system: HL-60
Method in brief: as §3

[26] = test system: BV-173
Method in brief: as §3

[27] = test system: SHI-1
Method in brief: as §3

[28] = test system: THP-1
Method in brief: as §3

## CNC(=C[N+](=O)[O-])NCCSCc1ccc(CN(C)C)o1 [Ranitidine]
[1]; co-treatment: AZD3965 100 nM
  area under dose-response curve: < 0.0301
[1]; co-treatment: DMSO vehicle
  area under dose-response curve: < 0.0301
[1]; co-treatment: GSK2194069 100 nM
  area under dose-response curve: < 0.0301
[1]; co-treatment: pictilisib 100 nM
  area under dose-response curve: < 0.0301
[2]; 1 nM
  cell viability: 97.4%
[2]; 10 nM
  cell viability: 113%
[2]; 100 nM
  cell viability: 101%
[2]; 1000 nM
  cell viability: 100%
[2]; 10000 nM
  cell viability: 98.9%
[3]; 1 nM
  cell viability: 98.5%
[3]; 10 nM
  cell viability: 109%
[3]; 100 nM
  cell viability: 108%
[3]; 1000 nM
  cell viability: 114%
[3]; 10000 nM
  cell viability: 104%
[4]; 1 nM
  cell viability: 97.9%
[4]; 10 nM
  cell viability: 94.2%
[4]; 100 nM
  cell viability: 91.6%
[4]; 1000 nM
  cell viability: 102%
[4]; 10000 nM
  cell viability: 117%
[5]; 1 nM
  cell viability: 113%
[5]; 10 nM
  cell viability: 104%
[5]; 100 nM
  cell viability: 107%
[5]; 1000 nM
  cell viability: 104%
[5]; 10000 nM
  cell viability: 92.4%
[6]; 1 nM
  cell viability: 107%
[6]; 10 nM
  cell viability: 89.3%
[6]; 100 nM
  cell viability: 105%
[6]; 1000 nM
  cell viability: 104%
[6]; 10000 nM
  cell viability: 102%
[7]; 1 nM
  cell viability: 108%
[7]; 10 nM
  cell viability: 92.1%
[7]; 100 nM
  cell viability: 93.5%
[7]; 1000 nM
  cell viability: 97.3%
[7]; 10000 nM
  cell viability: 103%
[8]; 1 nM
  cell viability: 104%
[8]; 10 nM
  cell viability: 85.8%
[8]; 100 nM
  cell viability: 126%
[8]; 1000 nM
  cell viability: 174%
[8]; 10000 nM
  cell viability: 163%
[9]; 1 nM
  cell viability: 100%
[9]; 10 nM
  cell viability: 101%
[9]; 100 nM
  cell viability: 103%
[9]; 1000 nM
  cell viability: 109%
[9]; 10000 nM
  cell viability: 92.9%
[10]; 1 nM
  cell viability: 98.1%
[10]; 10 nM
  cell viability: 156%
[10]; 100 nM
  cell viability: 97.5%
[10]; 1000 nM
  cell viability: 95.5%
[10]; 10000 nM
  cell viability: 121%
[11]; 1 nM
  cell viability: 96.7%
[11]; 10 nM
  cell viability: 96.1%
[11]; 100 nM
  cell viability: 105%
[11]; 1000 nM
  cell viability: 96.9%
[11]; 10000 nM
  cell viability: 108%
[12]; 1 nM
  cell viability: 98.6%
[12]; 10 nM
  cell viability: 107%
[12]; 100 nM
  cell viability: 96.4%
[12]; 1000 nM
  cell viability: 122%
[12]; 10000 nM
  cell viability: 104%
[13]; 0.001 µM, co-treatment: AZD3965 100 nM
  cell viability: 103 ± 2.5%
[13]; 0.001 µM, co-treatment: DMSO vehicle
  cell viability: 104 ± 0.67%
[13]; 0.001 µM, co-treatment: GSK2194069 100 nM
  cell viability: 94.3 ± 10%
[13]; 0.001 µM, co-treatment: pictilisib 100 nM
  cell viability: 95.9 ± 16%
[13]; 0.01 µM, co-treatment: AZD3965 100 nM
  cell viability: 102 ± 2.5%
[13]; 0.01 µM, co-treatment: DMSO vehicle
  cell viability: 87.7 ± 16%
[13]; 0.01 µM, co-treatment: GSK2194069 100 nM
  cell viability: 89.5 ± 1.4%
[13]; 0.01 µM, co-treatment: pictilisib 100 nM
  cell viability: 70.3 ± 19%
[13]; 0.1 µM, co-treatment: AZD3965 100 nM
  cell viability: 99.6 ± 4.2%
[13]; 0.1 µM, co-treatment: DMSO vehicle
  cell viability: 105.91 ± 0.021%
[13]; 0.1 µM, co-treatment: GSK2194069 100 nM
  cell viability: 108 ± 12%
[13]; 0.1 µM, co-treatment: pictilisib 100 nM
  cell viability: 98.5 ± 5.1%
[13]; 1 µM, co-treatment: AZD3965 100 nM
  cell viability: 107 ± 8.7%
[13]; 1 µM, co-treatment: DMSO vehicle
  cell viability: 106.4 ± 0.2%
[13]; 1 µM, co-treatment: GSK2194069 100 nM
  cell viability: 106 ± 12%
[13]; 1 µM, co-treatment: pictilisib 100 nM
  cell viability: 110 ± 11%
[13]; 10 µM, co-treatment: AZD3965 100 nM
  cell viability: 100 ± 3%
[13]; 10 µM, co-treatment: DMSO vehicle
  cell viability: 96.1 ± 5.9%
[13]; 10 µM, co-treatment: GSK2194069 100 nM
  cell viability: 102 ± 4.1%
[13]; 10 µM, co-treatment: pictilisib 100 nM
  cell viability: 96.9 ± 4.7%
[14]
  IC50 (cell viability): > 10 µM
[15]
  IC50 (cell viability): > 10 µM
[16]
  IC50 (cell viability): > 10 µM
[17]
  IC50 (cell viability): > 10 µM
[18]
  IC50 (cell viability): > 10 µM
[19]
  IC50 (cell viability): > 10 µM
[20]
  IC50 (cell viability): > 10 µM
[21]
  IC50 (cell viability): > 10 µM
[22]
  IC50 (cell viability): > 10 µM
[23]
  IC50 (cell viability): > 10 µM
[24]
  IC50 (cell viability): > 10 µM
[25]
  IC50 (cell viability): > 10 µM
[26]
  IC50 (cell viability): > 10 µM
[27]
  IC50 (cell viability): > 10 µM
[28]
  IC50 (cell viability): > 10 µM
